# In patent US12606528B2, “Methods and materials for inhibiting NF-kB activity” (University of Pittsburgh - Of the Commonwealth System of …, priority 2019, dated 2026):
# System: TNF release
# Test: TNF assay: TNF release from LPS-stimulated human PBMCs (TNF ELISA)
# Format: cell-based
# Settings: PBMC; LPS-stimulated human PBMCs, TNF ELISA; read-out: IC50 (TNF assay)
# Experimental: 25k THP1-NF-κB-LUC cells were dispensed into 384 well plate (per well). Cells were treated with compounds with various concentrations for 2 hours before addition of LPS (10 ng/mL) for 18 hours. Secreted luciferase activity were measured using quant-luc reagents (1 bag of luc reagent dilute to 40 mL, use 10 μL per well). Data were normalized to vehicle control and graphed. Compound IC50 towards inhibiting NF-κB were determined through Prism. Similarly, 10k human PBMCs cells were cultured in 384 well plate (per well). Cells were treated with compounds with various concentrations for 2 hours before addition of LPS (10 ng/ml) for 18 hours, and supernatants were collected and assayed for TNF ELISA. Compound IC50 towards inhibiting TNF release were determined through Prism. • Activity: “+”>10 μM, “++”>1 μM and <10 μM, “+++”>0.1 μM and <1 μM, “++++”<0.1 μM.
row,IC50,Compound
1,> 10 µM,CC(C)S(=O)(=O)[C@@H]1CN(Cc2ccccc2)C[C@H]1S(=O)(=O)c1ccc(F)cc1 (racemic) [BC19643]
2,1 to 10 µM,CC(=O)N1C[C@@H](S(=O)(=O)c2ccc(F)cc2)[C@H](S(=O)(=O)C(C)C)C1 (racemic) [BC19670]
3,1 to 10 µM,CC(C)S(=O)(=O)[C@H]1CN(C(=O)c2ccccc2)C[C@@H]1S(=O)(=O)c1ccc(F)cc1 (racemic) [BC19683]
4,> 10 µM,CC(C)S(=O)(=O)[C@H]1CN(C2CCOCC2)C[C@@H]1S(=O)(=O)c1ccc(F)cc1 (racemic) [BC19684]
5,> 10 µM,Cn1cnnc1-c1ccc2nc(-c3ccc(F)cc3)c(-c3ccc(F)cc3)nc2c1 [BC19101]
6,> 10 µM,Cc1nnc(-c2ccc3nc(-c4ccc(F)cc4)c(-c4ccc(F)cc4)nc3c2)[nH]1 [BC19102]

# System: NF-κB
# Test: NF-κB assay: THP1-NF-κB-LUC cells, LPS-stimulated secreted luciferase
# Format: cell-based
# Settings: THP1-NF-κB-LUC cells, LPS-stimulated; read-out: IC50 (NF-κB assay)
# Outline: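 THP1-NF-κB-LUC cells (25k/well) were pretreated with compounds for 2 h, then stimulated with LPS (10 ng/mL) for 18 h. Secreted luciferase was measured and normalized to vehicle, and IC50 was fitted from the concentration series.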
row,IC50,Compound
1,> 10 µM,CC(C)S(=O)(=O)[C@@H]1CN(Cc2ccccc2)C[C@H]1S(=O)(=O)c1ccc(F)cc1 (racemic) [BC19643]
2,1 to 10 µM,CC(=O)N1C[C@@H](S(=O)(=O)c2ccc(F)cc2)[C@H](S(=O)(=O)C(C)C)C1 (racemic) [BC19670]
3,> 10 µM,CC(C)S(=O)(=O)[C@H]1CN(C(=O)c2ccccc2)C[C@@H]1S(=O)(=O)c1ccc(F)cc1 (racemic) [BC19683]
4,> 10 µM,CC(C)S(=O)(=O)[C@H]1CN(C2CCOCC2)C[C@@H]1S(=O)(=O)c1ccc(F)cc1 (racemic) [BC19684]
5,< 0.1 µM,Cn1cnnc1-c1ccc2nc(-c3ccc(F)cc3)c(-c3ccc(F)cc3)nc2c1 [BC19101]
6,0.1 to 1 µM,Cc1nnc(-c2ccc3nc(-c4ccc(F)cc4)c(-c4ccc(F)cc4)nc3c2)[nH]1 [BC19102]

# Same assay, conditions: THP1-NF-κB-LUC cells; compounds 2 hours before LPS (10 ng/mL) for 18 hours; secreted luciferase; read-out: IC50 (NF-κB assay)
row,IC50,Compound
1,< 0.1 µM,Cc1cc2c(cc1S(=O)(=O)Nc1cc(F)ccc1F)OCC(=O)N2 [BC181311]
2,1 to 10 µM,Cc1cc2c(cc1S(=O)(=O)Nc1cccc(C)c1C)OCC(=O)N2 [BC181312]
3,> 10 µM,Cc1cc2c(cc1S(=O)(=O)Nc1c(C)cccc1C(C)C)OCC(=O)N2 [BC181313]
4,< 0.1 µM,CSc1cccc(NS(=O)(=O)c2cc3c(cc2C)NC(=O)CO3)c1 [BC181314]
5,< 0.1 µM,Cc1cc2c(cc1S(=O)(=O)Nc1ccc(CC(F)(F)F)cc1)OCC(=O)N2 [BC181315]
6,> 10 µM,Cc1cc2c(cc1S(=O)(=O)N(C)c1ccc(Br)cc1)OCC(=O)N2 [BC181316]
7,> 10 µM,COc1cccc(NS(=O)(=O)c2cc3c(cc2C)N(C(C)=O)CCO3)c1 [BC181317]
8,> 10 µM,CC(=O)N1CCOc2cc(S(=O)(=O)Nc3c(C)cccc3C)c(C)cc21 [BC181318]
9,> 10 µM,COc1ccc(NS(=O)(=O)c2cc3c(cc2C)N(C)CCO3)cc1 [BC181319]
10,> 10 µM,Cc1cccc(NS(=O)(=O)c2cc3c(cc2C)N(C)CCO3)c1 [BC181320]
11,< 0.1 µM,Cc1cc2c(cc1S(=O)(=O)Nc1cccc(Br)c1)OCC(=O)N2 [BC181321]
12,> 10 µM,COc1ccc(NS(=O)(=O)c2cc3c(cc2C)NC(=O)CO3)cc1OC [BC181322]
13,> 10 µM,Cc1cc2c(cc1S(=O)(=O)Nc1c(C)cccc1C)OCC(=O)N2 [BC181323]
14,> 10 µM,COc1cc(NS(=O)(=O)c2cc3c(cc2C)NC(=O)CO3)cc(OC)c1OC [BC181324]
15,> 10 µM,CCc1cccc(CC)c1NS(=O)(=O)c1cc2c(cc1C)NC(=O)CO2 [BC181325]
16,> 10 µM,COc1ccc(C)cc1NS(=O)(=O)c1cc2c(cc1C)NC(=O)CO2 [BC181326]
17,> 10 µM,COc1ccc(N(C)S(=O)(=O)c2cc3c(cc2C)NC(=O)CO3)c(OC)c1 [BC181327]
18,> 10 µM,COc1ccc(NS(=O)(=O)c2cc3c(cc2C)N(C(C)=O)CCO3)cc1 [BC181328]
19,1 to 10 µM,CCc1ccc(NS(=O)(=O)c2cc3c(cc2C)N(C(C)=O)CCO3)cc1 [BC181329]
20,1 to 10 µM,Cc1cc2c(cc1S(=O)(=O)Nc1ccc(Cl)cc1)OCCN2C [BC181330]
21,< 0.1 µM,Cc1cc2c(cc1S(=O)(=O)Nc1ccc(F)c(Cl)c1)OCC(=O)N2 [BC181331]
22,> 10 µM,CCNS(=O)(=O)c1cc2c(cc1C)NC(=O)CO2 [BC181332]
23,1 to 10 µM,COc1ccc(NS(=O)(=O)c2cc3c(cc2C)NC(=O)CO3)cc1 [BC181333]
24,1 to 10 µM,CCOC(=O)c1cccc(NS(=O)(=O)c2cc3c(cc2C)NC(=O)CO3)c1 [BC181334]
25,> 10 µM,Cc1ccc(C)c(NS(=O)(=O)c2cc3c(cc2C)NC(=O)CO3)c1 [BC181335]

row,IC50,Compound
1,< 0.1 µM,Cc1cc2c(cc1S(=O)(=O)Nc1ccc(C(C)C)cc1)OCC(=O)N2 [BC181336]
2,> 10 µM,CCOc1ccc(OCC)c(NS(=O)(=O)c2cc3c(cc2C)NC(=O)CO3)c1 [BC181337]
3,1 to 10 µM,CCCN(c1ccccc1OC)S(=O)(=O)c1cc2c(cc1C)NC(=O)CO2 [BC181338]
4,> 10 µM,CC(=O)N1CCOc2cc(S(=O)(=O)Nc3ccccc3Br)c(C)cc21 [BC181339]
5,> 10 µM,CCOc1ccc(NS(=O)(=O)c2cc3c(cc2C)N(C(C)=O)CCO3)cc1 [BC181340]
6,1 to 10 µM,Cc1cc2c(cc1S(=O)(=O)Nc1ccc(F)cc1F)OCCN2C [BC181341]
7,0.1 to 1 µM,Cc1cc2c(cc1S(=O)(=O)Nc1ccc3c(c1)OCCO3)OCC(=O)N2 [BC181342]
8,< 0.1 µM,Cc1ccc(NS(=O)(=O)c2cc3c(cc2Cl)NC(=O)CO3)cc1F [BC181343]
9,0.1 to 1 µM,Cc1cc2c(cc1S(=O)(=O)Nc1ccccc1Br)OCC(=O)N2 [BC181344]
10,> 10 µM,CCN(c1ccccc1)S(=O)(=O)c1cc2c(cc1C)NC(=O)CO2 [BC181345]
11,> 10 µM,Cc1ccc(NS(=O)(=O)c2cc3c(cc2C)NC(=O)CO3)c(C)c1 [BC181346]
12,1 to 10 µM,CCc1cccc(NS(=O)(=O)c2cc3c(cc2C)NC(=O)CO3)c1 [BC181347]
13,> 10 µM,CCN(CC)c1ccc(NS(=O)(=O)c2cc3c(cc2C)NC(=O)CO3)c(C)c1 [BC181348]
14,> 10 µM,CCN(c1ccc(OC)cc1)S(=O)(=O)c1cc2c(cc1C)NC(=O)CO2 [BC181349]
15,1 to 10 µM,CC(=O)N1CCOc2cc(S(=O)(=O)Nc3cccc(Cl)c3)c(C)cc21 [BC181350]
16,> 10 µM,CCc1ccc(NS(=O)(=O)c2cc3c(cc2C)N(C)CCO3)cc1 [BC181352]
17,< 0.1 µM,Cc1ccc(NS(=O)(=O)c2cc3c(cc2C)NC(=O)CO3)cc1F [BC181353]
18,< 0.1 µM,Cc1cc2c(cc1S(=O)(=O)Nc1cccc(Cl)c1)OCC(=O)N2 [BC181354]
19,< 0.1 µM,Cc1cc2c(cc1S(=O)(=O)Nc1ccc(Cl)cc1)OCC(=O)N2 [BC181355]
20,> 10 µM,CCc1ccccc1NS(=O)(=O)c1cc2c(cc1C)NC(=O)CO2 [BC181356]
21,> 10 µM,COc1ccc(OC)c(NS(=O)(=O)c2cc3c(cc2C)NC(=O)CO3)c1 [BC181357]
22,> 10 µM,COc1ccc(Cl)cc1NS(=O)(=O)c1cc2c(cc1C)NC(=O)CO2 [BC181358]
23,> 10 µM,Cc1cccc(N(C)S(=O)(=O)c2cc3c(cc2C)NC(=O)CO3)c1 [BC181359]
24,> 10 µM,COc1ccc(OC)c(N(C)S(=O)(=O)c2cc3c(cc2C)NC(=O)CO3)c1 [BC181360]
25,0.1 to 1 µM,CC(=O)N1CCOc2cc(S(=O)(=O)Nc3ccc(Cl)cc3)c(C)cc21 [BC181361]

row,IC50,Compound
1,1 to 10 µM,CC(=O)N1CCOc2cc(S(=O)(=O)Nc3ccc(C(C)C)cc3)c(C)cc21 [BC181362]
2,> 10 µM,Cc1cc2c(cc1S(=O)(=O)Nc1cccc(F)c1)OCCN2C [BC181363]
3,0.1 to 1 µM,Cc1cc2c(cc1S(=O)(=O)Nc1ccc(F)c(F)c1)OCC(=O)N2 [BC181364]
4,1 to 10 µM,Cc1cc2c(cc1S(=O)(=O)Nc1cc(C(F)(F)F)cc(C(F)(F)F)c1)OCC(=O)N2 [BC181365]
5,1 to 10 µM,Cc1ccc(Cl)cc1NS(=O)(=O)c1cc2c(cc1C)NC(=O)CO2 [BC181366]
6,< 0.1 µM,CCc1ccc(NS(=O)(=O)c2cc3c(cc2C)NC(=O)CO3)cc1 [BC181367]
7,1 to 10 µM,Cc1ccc(NS(=O)(=O)c2cc3c(cc2C)NC(=O)CO3)cc1C [BC181368]
8,1 to 10 µM,COc1ccc(NS(=O)(=O)c2cc3c(cc2C)NC(=O)CO3)cc1Cl [BC181369]
9,< 0.1 µM,Cc1ccc(NS(=O)(=O)c2cc3c(cc2C)NC(=O)CO3)cc1 [BC181370]
10,> 10 µM,CC(=O)c1ccc(NS(=O)(=O)c2cc3c(cc2C)N(C(C)=O)CCO3)cc1 [BC181371]
11,1 to 10 µM,CC(=O)N1CCOc2cc(S(=O)(=O)Nc3ccc(F)cc3F)c(C)cc21 [BC181372]
12,> 10 µM,CCc1cccc(NS(=O)(=O)c2cc3c(cc2C)N(C(C)=O)CCO3)c1 [BC181373]
13,> 10 µM,CCOc1ccc(NS(=O)(=O)c2cc3c(cc2C)N(C)CCO3)cc1 [BC181374]
14,0.1 to 1 µM,Cc1cc2c(cc1S(=O)(=O)Nc1ccc(F)cc1Cl)OCC(=O)N2 [BC181375]
15,> 10 µM,COc1ccc(NS(=O)(=O)c2cc3c(cc2C)NC(=O)CO3)c(OC)c1 [BC181376]
16,< 0.1 µM,Cc1cc2c(cc1S(=O)(=O)Nc1cccc(F)c1)OCC(=O)N2 [BC181377]
17,1 to 10 µM,Cc1cc(C)cc(NS(=O)(=O)c2cc3c(cc2C)NC(=O)CO3)c1 [BC181378]
18,> 10 µM,CCOc1ccccc1NS(=O)(=O)c1cc2c(cc1C)NC(=O)CO2 [BC181379]
19,0.1 to 1 µM,Cc1cc2c(cc1S(=O)(=O)Nc1ccccc1Cl)OCC(=O)N2 [BC181380]
20,> 10 µM,COc1ccc(NS(=O)(=O)c2cc3c(cc2C)N(C(C)=O)CCO3)cc1OC [BC181381]
21,> 10 µM,COc1ccc(NS(=O)(=O)c2cc3c(cc2C)N(C(C)=O)CCO3)c(OC)c1 [BC181382]
22,0.1 to 1 µM,CC(=O)N1CCOc2cc(S(=O)(=O)Nc3ccc(C)c(F)c3)c(C)cc21 [BC181383]
23,1 to 10 µM,Cc1cc2c(cc1S(=O)(=O)Nc1ccc(C(C)C)cc1)OCCN2C [BC181384]
24,> 10 µM,CC(=O)Nc1ccc(NS(=O)(=O)c2cc3c(cc2C)NC(=O)CO3)cc1 [BC181385]

# Same assay, conditions: read-out: IC50 (NF-κB assay)
row,Compound,IC50
1,CC(=O)N1CCOc2cc(S(=O)(=O)Nc3ccccc3C)c(C)cc21 [BC181351],> 10 µM
